In patent US11149066B2, “Thrombospondin 1-binding peptide” (DAIICHI SANKYO COMPANY, LIMITED, priority 2016, dated 2021):
pIC50: −log10 of the molar value. Positions of bridges follow the written chain, without caps; N, C: chain ends. Non-standard residues stand in square brackets, D forms with d. Residues, ends and D or L forms follow the SMILES beside them. Phe(4-CH2NH2) = NCc1ccc(C[C@H](N)C(=O)O)cc1; 2Nal = N[C@@H](Cc1ccc2ccccc2c1)C(=O)O; Met(O2) = CS(=O)(=O)CC[C@H](N)C(=O)O; His(π-Me) = Cn1cncc1C[C@H](N)C(=O)O; hCit = NC(=O)NCCCC[C@H](N)C(=O)O; hPhe = N[C@@H](CCc1ccccc1)C(=O)O; Phg = N[C@H](C(=O)O)c1ccccc1; Tle = CC(C)(C)[C@H](N)C(=O)O; hCys = N[C@@H](CCS)C(=O)O; Nle = CCCC[C@H](N)C(=O)O

What follows are molecules tested against human TSP1 (Homo sapiens, UniProt P07996) (assay: Cell adhesion inhibition assay (HUVEC adhesion to TSP1-coated plate)). Conditions: HUVEC adhesion to TSP1-coated plate; read-out: cell adhesion inhibition (Table 4).
Format: cell-based
Method: As referred to herein, the TSP1 inhibitory activity refers to the activity to inhibit one or more effects of TSP1, including angiostatic effect. The TSP1 inhibitory activity is measured by a cell adhesion inhibition assay using human TSP1 and vascular endothelial cells as described hereinbelow in the Examples section. In this assay, when the 50% inhibitory concentration (IC5O) of a test substance is 200 nM or less, the test substance is determined to have TSP1 inhibitory activity.
(Test Example 1) Cell Adhesion Inhibition Assay
I. Materials and Reagents
96 well Non-treated White with clear bottom (Coster, 3632)
BrightMax adhesive sealing films (EXCEL Scientific, WT50)
Proteosave®SS 15 mL (Sumitomo Bakelite, MS-52150)
Thrombospondin human platelet (Calbiochem, 605225)
EGM-2 MV (Lonza, CC-3202): for HUVEC passaging
Collagen coated dish (IWAKI, 4020-010): for HUVEC passaging
Lipidure®-BL802 (NOF Corporation), 5% solution
Albumin solution (35%) fraction V from Bovine (Sigma, A7979)
CellTiter-Glo (Promega, G7572)
Thrombospondin 1 vial (25 μg) was dissolved in TBS (+2 mM CaCl2; the same shall apply hereunder) to make a 200 μg/mL solution, which was diluted with TBS to a concentration of 10 μg/mL in Proteosave® 15 mL tube. The 10 μg/mL solution was dispensed into a 96 well plate at a volume of 50 μL/well (no reservoir was used since the protein easily adsorbs on it), and the plate was left to stand at 4° C. overnight.
Lipidure® was diluted 10-fold with TBS to make a 0.5% solution. After a buffer was discarded from the plate that had been coated at the step of <Plate coat> as described above, the 0.5% solution was dispensed into all wells to be used at a volume of 100 μL/well, and the plate was left to stand at room temperature for 1 hour.
A 0.2 μM solution of each sample was prepared using a dilution buffer (DMEM+0.5% BSA). 2 μL of the 0.2 μM solution was diluted with 500 μL, of dilution buffer to prepare a diluted sample. As a vehicle control, DMSO was diluted in the same way as the samples.
A blocking solution was discarded from the plate that had been treated at the step of <Plate blocking> as described above, and the plate was washed three times with 150 μL/well of TBS. The washing solution used for the third washing was completely sucked out by an aspirator, and the diluted sample was dispensed into the plate at a volume of 50 μL/well. Then, the plate was left to stand at room temperature for 15 to 30 minutes.
To maintain HUVECs, EGM2-MV and a collagen coated dish were used (the cells were ceased to be used after 10th or 1 lth passage since the cell proliferation rate declined at this stage). The cells were dispersed with 0.05% Trypsin/EDTA, harvested in DMEM/0.5% BSA, and centrifuged at 1000 rpm for 3 minutes. After removal of supernatant, the cells were washed once with a DMEM buffer. The cells were resuspended in a DMEM buffer, counted for cell number, and diluted to 10000 cells/50 μL. The cell suspension was dispensed at a volume of 50 μL/well into the plate into which the sample had been dispensed, mixed gently, and incubated at 37° C. for 2.5 hours.
After cell adhesion was confirmed, the culture medium was completely removed by an aspirator, and 100 μL/well of DMEM/0.5% BSA was gently dispensed. Then, DMEM/0.5% BSA was completely removed by an aspirator, and 50 μL/well of DMEM/0.5% BSA was dispensed. After a white seal was applied to the bottom of the plate, 50 μL/well of CellTiter-Glo® was dispensed, and the solution was stirred for 2 minutes and left to stand at room temperature for 8 minutes. […] was detected using EnVision Xcite Multilabel Reader (produced by Perkin Elmer).
On the basis of the measured fluorescence values, the IC50 values (nM) of the different macrocyclic polypeptides for inhibition of cell adhesion were calculated.

human TSP1, sequence (P07996 19-1170 limits assumed): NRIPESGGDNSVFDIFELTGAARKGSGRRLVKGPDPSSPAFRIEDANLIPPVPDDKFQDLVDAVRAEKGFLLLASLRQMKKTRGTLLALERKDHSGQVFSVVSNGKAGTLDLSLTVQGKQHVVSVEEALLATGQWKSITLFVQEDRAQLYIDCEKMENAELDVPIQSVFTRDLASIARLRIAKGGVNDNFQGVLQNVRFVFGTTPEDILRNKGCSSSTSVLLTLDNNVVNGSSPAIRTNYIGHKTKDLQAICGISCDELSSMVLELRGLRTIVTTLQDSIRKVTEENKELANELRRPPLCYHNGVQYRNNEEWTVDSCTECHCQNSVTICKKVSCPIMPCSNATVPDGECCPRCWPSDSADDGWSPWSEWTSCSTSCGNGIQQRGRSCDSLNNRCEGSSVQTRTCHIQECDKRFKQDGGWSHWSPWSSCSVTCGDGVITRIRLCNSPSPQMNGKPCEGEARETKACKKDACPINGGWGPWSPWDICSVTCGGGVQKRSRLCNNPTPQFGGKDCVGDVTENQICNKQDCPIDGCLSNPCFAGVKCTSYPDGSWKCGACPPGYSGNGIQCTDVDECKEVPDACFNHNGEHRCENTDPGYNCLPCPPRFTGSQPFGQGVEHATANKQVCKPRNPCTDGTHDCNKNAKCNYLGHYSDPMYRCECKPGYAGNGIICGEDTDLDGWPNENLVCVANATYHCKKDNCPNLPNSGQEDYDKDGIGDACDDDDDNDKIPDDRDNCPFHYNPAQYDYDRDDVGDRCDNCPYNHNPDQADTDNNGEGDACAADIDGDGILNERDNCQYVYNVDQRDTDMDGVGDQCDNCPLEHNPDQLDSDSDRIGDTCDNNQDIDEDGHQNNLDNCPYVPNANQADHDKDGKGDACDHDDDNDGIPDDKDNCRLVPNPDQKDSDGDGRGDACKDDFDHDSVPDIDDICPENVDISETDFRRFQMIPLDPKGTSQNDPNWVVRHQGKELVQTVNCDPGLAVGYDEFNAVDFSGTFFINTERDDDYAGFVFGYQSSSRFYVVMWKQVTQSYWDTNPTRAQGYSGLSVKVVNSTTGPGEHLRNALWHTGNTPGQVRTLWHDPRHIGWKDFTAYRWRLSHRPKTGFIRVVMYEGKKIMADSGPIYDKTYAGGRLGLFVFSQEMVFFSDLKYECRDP

| Compound | pIC50 |
| --- | --- |
| CCCC[C@@H]1NC(=O)[C@H](Cc2c[nH]c3ccccc23)NC(=O)[C@H](CC(=O)O)NC(=O)[C@H](CCCNC(=N)N)NC(=O)CNC(=O)[C@H](CO)NC(=O)[C@H]([C@@H](C)CC)NC(=O)[C@H](Cc2ccc3ccccc3c2)NC(=O)[C@H](C)NC(=O)CSC[C@@H](C(N)=O)NC(=O)[C@H](C(C)C)NC(=O)[C@H](Cc2c[nH]c3ccccc23)NC(=O)[C@H](CCCCN)NC1=O [Compound 80] ({CH2CO}-A[2Nal]ISGRDW[Nle]KWVC-NH2; thioether N-13) | 7.94 |

Same assay, conditions: HUVEC adhesion to human platelet thrombospondin-coated plate, 2.5 hours, CellTiter-Glo; read-out: Cell adhesion IC50

| Compound | pIC50 |
| --- | --- |
| CC[C@H](C)[C@@H]1NC(=O)[C@H](Cc2ccc3ccccc3c2)NC(=O)CSC[C@@H](C(N)=O)NC(=O)[C@H](CCc2ccccc2)NC(=O)[C@H](Cc2c[nH]c3ccccc23)NC(=O)[C@H](CCCCN)NC(=O)[C@H](C(C)C)NC(=O)[C@H](Cc2c[nH]c3ccccc23)NC(=O)[C@H](CC(N)=O)NC(=O)[C@H](CCCNC(=N)N)NC(=O)CNC(=O)[C@H](CO)NC1=O [Compound 37] ({CH2CO}-[2Nal]ISGRNWVKW[hPhe]C-NH2; thioether N-12) | 7.71 |
| CCCC[C@@H]1NC(=O)[C@H](Cc2c[nH]c3ccccc23)NC(=O)[C@H](CC(N)=O)NC(=O)[C@H](CCCNC(=N)N)NC(=O)CNC(=O)[C@H](CO)NC(=O)[C@H]([C@@H](C)CC)NC(=O)[C@H](Cc2ccc3ccccc3c2)NC(=O)CSC[C@@H](C(N)=O)NC(=O)[C@H](C(C)C)NC(=O)[C@H](Cc2c[nH]c3ccccc23)NC(=O)[C@H](CCCCN)NC1=O [Compound 38] ({CH2CO}-[2Nal]ISGRNW[Nle]KWVC-NH2; thioether N-12) | 8.04 |
| CC[C@H](C)[C@@H]1NC(=O)[C@H](Cc2ccccc2)NC(=O)CSC[C@@H](C(N)=O)NC(=O)[C@H](C(C)C)NC(=O)[C@H](Cc2c[nH]c3ccccc23)NC(=O)[C@H](Cc2cncn2C)NC(=O)[C@H](C(C)C)NC(=O)[C@H](Cc2c[nH]c3ccccc23)NC(=O)[C@H](CC(N)=O)NC(=O)[C@H](CCCNC(=N)N)NC(=O)CNC(=O)[C@H](CO)NC1=O [Compound 46] ({CH2CO}-FISGRNWV[His(π-Me)]WVC-NH2; thioether N-12) | 7.52 |
| CC[C@H](C)[C@@H]1NC(=O)[C@H](Cc2ccccc2)NC(=O)CSC[C@@H](C(N)=O)NC(=O)[C@H](C(C)C)NC(=O)[C@H](Cc2c[nH]c3ccccc23)NC(=O)[C@H](Cc2ccc(CN)cc2)NC(=O)[C@H](C(C)C)NC(=O)[C@H](Cc2c[nH]c3ccccc23)NC(=O)[C@H](CC(N)=O)NC(=O)[C@H](CCCNC(=N)N)NC(=O)CNC(=O)[C@H](CO)NC1=O [Compound 47] ({CH2CO}-FISGRNWV[Phe(4-CH2NH2)]WVC-NH2; thioether N-12) | 7.78 |
| CC(C)[C@@H]1NC(=O)[C@H](Cc2c[nH]c3ccccc23)NC(=O)[C@H](CCCCN)NC(=O)[C@H](C(C)C)NC(=O)[C@H](Cc2c[nH]c3ccccc23)NC(=O)[C@H](CC(N)=O)NC(=O)[C@H](CCCNC(=N)N)NC(=O)CNC(=O)[C@H](CO)NC(=O)[C@H](c2ccccc2)NC(=O)[C@H](Cc2ccc3ccccc3c2)NC(=O)CSC[C@@H](C(N)=O)NC1=O [Compound 49] ({CH2CO}-[2Nal][Phg]SGRNWVKWVC-NH2; thioether N-12) | 7.94 |
| CC[C@H](C)[C@@H]1NC(=O)[C@H](Cc2ccc3ccccc3c2)NC(=O)CSC[C@@H](C(N)=O)NC(=O)[C@H](C(C)(C)C)NC(=O)[C@H](Cc2c[nH]c3ccccc23)NC(=O)[C@H](CCCCN)NC(=O)[C@H](C(C)C)NC(=O)[C@H](Cc2c[nH]c3ccccc23)NC(=O)[C@H](CC(N)=O)NC(=O)[C@H](CCCNC(=N)N)NC(=O)CNC(=O)[C@H](CO)NC1=O [Compound 53] ({CH2CO}-[2Nal]ISGRNWVKW[Tle]C-NH2; thioether N-12) | 7.80 |
| CC[C@H](C)[C@@H]1NC(=O)[C@H](Cc2ccc3ccccc3c2)NC(=O)CSCC[C@@H](C(N)=O)NC(=O)[C@H](C(C)C)NC(=O)[C@H](Cc2c[nH]c3ccccc23)NC(=O)[C@H](CCCCN)NC(=O)[C@H](C(C)C)NC(=O)[C@H](Cc2c[nH]c3ccccc23)NC(=O)[C@H](CC(N)=O)NC(=O)[C@H](CCCNC(=N)N)NC(=O)CNC(=O)[C@H](CO)NC1=O [Compound 54] ({CH2CO}-[2Nal]ISGRNWVKWV[hCys]-NH2; thioether N-12) | 7.71 |
| CCCC[C@@H]1NC(=O)[C@H](Cc2c[nH]c3ccccc23)NC(=O)[C@H](CC(=O)O)NC(=O)[C@H](CCCCN)NC(=O)CNC(=O)[C@H](CO)NC(=O)[C@H]([C@@H](C)CC)NC(=O)[C@H](Cc2ccc3ccccc3c2)NC(=O)CSC[C@@H](C(N)=O)NC(=O)[C@H](C(C)C)NC(=O)[C@H](Cc2c[nH]c3ccccc23)NC(=O)[C@H](CCCCN)NC1=O [Compound 57] ({CH2CO}-[2Nal]ISGKDW[Nle]KWVC-NH2; thioether N-12) | 7.81 |
| CCCC[C@@H]1NC(=O)[C@H](Cc2c[nH]c3ccccc23)NC(=O)[C@H](CC(N)=O)NC(=O)[C@H](Cc2c[nH]cn2)NC(=O)CNC(=O)[C@H](CO)NC(=O)[C@H]([C@@H](C)CC)NC(=O)[C@H](Cc2ccc3ccccc3c2)NC(=O)CSC[C@@H](C(N)=O)NC(=O)[C@H](C(C)C)NC(=O)[C@H](Cc2c[nH]c3ccccc23)NC(=O)[C@H](CCCCN)NC1=O [Compound 59] ({CH2CO}-[2Nal]ISGHNW[Nle]KWVC-NH2; thioether N-12) | 7.68 |
| CCCC[C@@H]1NC(=O)[C@H](Cc2c[nH]c3ccccc23)NC(=O)[C@H](CC(=O)O)NC(=O)[C@@H]2CCCN2C(=O)CNC(=O)[C@H](CO)NC(=O)[C@H]([C@@H](C)CC)NC(=O)[C@H](Cc2ccc3ccccc3c2)NC(=O)CSC[C@@H](C(N)=O)NC(=O)[C@H](C(C)C)NC(=O)[C@H](Cc2c[nH]c3ccccc23)NC(=O)[C@H](CCCCN)NC1=O [Compound 68] ({CH2CO}-[2Nal]ISGPDW[Nle]KWVC-NH2; thioether N-12) | 7.55 |
| CCCC[C@@H]1NC(=O)[C@H](Cc2c[nH]c3ccccc23)NC(=O)[C@H](CC(=O)O)NC(=O)[C@H](CCS(C)(=O)=O)NC(=O)CNC(=O)[C@H](CO)NC(=O)[C@H]([C@@H](C)CC)NC(=O)[C@H](Cc2ccc3ccccc3c2)NC(=O)CSC[C@@H](C(N)=O)NC(=O)[C@H](C(C)C)NC(=O)[C@H](Cc2c[nH]c3ccccc23)NC(=O)[C@H](CCCCN)NC1=O [Compound 71] ({CH2CO}-[2Nal]ISG[Met(O2)]DW[Nle]KWVC-NH2; thioether N-12) | 7.77 |
| CCCC[C@@H]1NC(=O)[C@H](Cc2c[nH]c3ccccc23)NC(=O)[C@H](CC(=O)O)NC(=O)[C@H](CCCCNC(N)=O)NC(=O)CNC(=O)[C@H](CO)NC(=O)[C@H]([C@@H](C)CC)NC(=O)[C@H](Cc2ccc3ccccc3c2)NC(=O)CSC[C@@H](C(N)=O)NC(=O)[C@H](C(C)C)NC(=O)[C@H](Cc2c[nH]c3ccccc23)NC(=O)[C@H](CCCCN)NC1=O [Compound 74] ({CH2CO}-[2Nal]ISG[hCit]DW[Nle]KWVC-NH2; thioether N-12) | 7.68 |
| CCCC[C@@H]1NC(=O)[C@H](Cc2c[nH]c3ccccc23)NC(=O)[C@H](CC(=O)O)NC(=O)[C@H](CCCNC(=N)N)NC(=O)CNC(=O)[C@H](CO)NC(=O)[C@H]([C@@H](C)CC)NC(=O)[C@H](Cc2ccc3ccccc3c2)NC(=O)CNC(=O)CSC[C@@H](C(N)=O)NC(=O)[C@H](C(C)C)NC(=O)[C@H](Cc2c[nH]c3ccccc23)NC(=O)[C@H](CCCCN)NC1=O [Compound 75] ({CH2CO}-G[2Nal]ISGRDW[Nle]KWVC-NH2; thioether N-13) | 7.79 |
